We go through three molecules from patent US10611777B2, “Imidazopyridazine compounds and their use” (HUTCHISON MEDIPHARMA LIMITED, priority 2014, dated 2020).

SMILES strings stand for the structures. pIC50: −log10 of the molar value. Converted amounts (≈) assume the structure as drawn.

Assay [1] concerns anti-IgD induced B cell activation. As to the kind of experiment: Anti-IgD antibody induced B cells activation in rat whole blood (ex vivo after oral dosing). On the procedure:
Activation of B cells (B220+) in rat whole blood with anti-IgD antibody leading to activation via Ig receptors is known to involve PI3K pathways and sensitive to modulation by PI3Kδ inhibitors. A pharmacodynamics assay was developed to assess activity of PI3Kδ inhibitors ex vivo following oral administration of inhibitors to rats.
Wistar rats (female, 6-8 weeks old) were used in the experiments. The dose dependency, time course study and PKPD relationship of compound 4 were conducted in normal Wistar rats. […] The control group (6 rats) was treated with the vehicle alone. […] The heparin anti-coagulated blood was mixed with anti-rat-IgD, then was incubated at 37° C. under 5% CO2 overnight. Fluorescence signal for CD86 on B220 (B cells) positive cells was detected using a flow cytometer (BD FACSCalibur, BD Biosciences) and data were analyzed by CellQuest software. Plasma was collected to measure compound 4 levels.

Assay [2] deals with Wistar rats with established type II collagen-induced arthritis. As to the kind of experiment: Rat collagen II induced arthritis (CIA) model. It is filed as in vivo. On the procedure: Rat collagen induced arthritis is an experimental model of polyarthritis that has been widely used for nonclinical testing of numerous anti-arthritic agents that are either under nonclinical or clinical investigation or are currently used as therapeutics in this disease.
Wistar rats were immunized intradermally with 200 μg bovine collagen II emulsified in Freund's incomplete adjuvant (IFA, Sigma, US) on day 0 and day 7. The hind paw volumes were measured before and after the immunization. […] The naive group was not administered. YiSaiPu (10 mg/kg), a human tumor necrosis factor receptor p75 Fc fusion protein, was administered with intraperitoneal injection on days 10, 12 and 14 as a positive control. The study was terminated on day 18.

The target of the next assay is PI3K-δ (p110δ/p85α) (Homo sapiens (Human), UniProt O00329). As to the kind of experiment: Fluorescent determination of PI3K enzyme activity (Transcreener KINASE Assay), PI3K-δ. In kind it is biochemical.
For another assay, the target named is PI3K-β (p110β/p85α) (Homo sapiens (Human), UniProt P42338). Nature of the assay: Fluorescent determination of PI3K enzyme activity (Transcreener KINASE Assay), PI3K-β.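 Also: Far-red fluorescence polarization immunoassay detecting ADP produced by the kinase, 80 min enzyme reaction at room temperature, inhibition relative to ADP formed in 2% DMSO control wells.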 As to conditions: inhibition rate at 1 μM. In kind it is biochemical.
For assay [3], the system named is AKT phosphorylation (p-AKT Ser473) in Ramos cells. As to the kind of experiment: Inhibition of AKT phosphorylation in Ramos cell line. In kind it is cell-based. To be noted: anti-IgM stimulated.
Protocol: 6×10^4/mL Ramos cells (ATCC, CRL-1596; cells were cultured in RPMI1640 media with 10% FBS) were seeded into a 96-well plate (Bookman Dickinson, No. 356692) at 80 uL/well, 4,800 cells/well. After incubations for 3 hr at 37° C. under 5% CO2, Ramos cells were treated with 10 uL/well various concentrations of test compound (final concentrations of the test compound: 1 uM, 0.3 uM, 0.1 uM, 0.037 uM, 0.012 uM, 0.0041 uM, 0.0014 uM and 0.0005 uM) or 0.3% DMSO for 30 min, and then were stimulated with 10 uL/well 1 ug/ml Anti-IgM (Jackson Immunoresearch, 709-006-073) for 15-20 min. • 1) Cells were fixed with 100 μL of 4% pre-warmed Paraformaldehyde (2% final concentration), and incubated for 45 min at room temperature. • 2) The paraformaldehyde solution was removed. 100 μL of ice-cold methanol was added into each well and the plate was left at 4° C. for 30 min. • 3) The cells were washed for three times with 160 μPBS. • 4) 40 μL 1:350 dilution of Rabbit anti-p-AKT(Ser^473) antibody (Cell Signaling Technology, 4060 L) in antibody dilution buffer (1% BSA, in PBS) were added into each well. […]
(§1) Data was analyzed and IC50 values were generated using the add-in software for Microsoft Excel, Xlfit™ (version 5.3).
The subject of assay [4] is PI3Kδ signaling in basophils from human whole blood. As to the kind of experiment: Inhibition of PI3Kδ signaling in basophils from human whole blood. In kind it is cell-based. As to conditions: anti-IgE stimulated, CD63.
Protocol: • 1) Heparinized human whole blood was mixed and pipetted into the 96 well v-bottom plate, 100 μL per well. • 2) 10 μL of stimulation buffer (1 mg/mL stock, final concentration of Recombinant human IL-3; 20 ng/mL) was added to the whole blood samples of each well and vortex gently. The samples were incubated for 20 min at 37° C. • 3) 10 uL/well of test compound dilution (final concentrations of the test compound in well: 1 uM, 0.3 uM, 0.1 uM, 0.037 uM, 0.012 uM, 0.0041 uM, 0.0014 uM and 0.0005 uM) or vehicle (0.2% DMSO) was added into each well of the plate and the plate was incubated for 1.5 h at 37° C. • 4) 100 μL of the Goat anti-human IgE (1 mg/mL stock, final concentration of IgE: 0.31 ug/mL) working solution was added into each well of the plate. Vortex all the wells once more and incubate for 20 min at 37° C. • 5) Labeling with staining antibody: Degranulation was stopped by incubating the samples on ice for 5 min. 6 μL of staining antibody mixture (anti-CD63-FITC and anti-IgE-PE) was added into each well. […] The plate was incubated in a covered ice bath until analysis. • 10) Flow cytometric analysis: Cells were analyzed by flow cytometry using the blue-green excitation light (488 nm argon-ion laser, FACSCalibur, CELLQuest software).
as §1
Another assay deals with PI3K-α (p110α/p85α) (Homo sapiens (Human), UniProt P42336). Nature of the assay: Fluorescent determination of PI3K enzyme activity (Transcreener KINASE Assay), PI3K-α. In kind it is biochemical. As to conditions: inhibition rate at 1 μM. On the procedure:
Inhibition rates were calculated as follow: IH %=(ADP amount under 2% DMSO well−ADP amount under test compound well)/ADP amount under 2% DMSO well×100%.

Another assay deals with SU-DHL-6 cell line. Nature of the assay: In vitro cell proliferation assay in SU-DHL-6 cell line. It is filed as cell-based. To be noted: SU-DHL-6, 72 h, CCK-8.

PI3K-β (p110β/p85α), sequence (P42338 whole entry, species assumed): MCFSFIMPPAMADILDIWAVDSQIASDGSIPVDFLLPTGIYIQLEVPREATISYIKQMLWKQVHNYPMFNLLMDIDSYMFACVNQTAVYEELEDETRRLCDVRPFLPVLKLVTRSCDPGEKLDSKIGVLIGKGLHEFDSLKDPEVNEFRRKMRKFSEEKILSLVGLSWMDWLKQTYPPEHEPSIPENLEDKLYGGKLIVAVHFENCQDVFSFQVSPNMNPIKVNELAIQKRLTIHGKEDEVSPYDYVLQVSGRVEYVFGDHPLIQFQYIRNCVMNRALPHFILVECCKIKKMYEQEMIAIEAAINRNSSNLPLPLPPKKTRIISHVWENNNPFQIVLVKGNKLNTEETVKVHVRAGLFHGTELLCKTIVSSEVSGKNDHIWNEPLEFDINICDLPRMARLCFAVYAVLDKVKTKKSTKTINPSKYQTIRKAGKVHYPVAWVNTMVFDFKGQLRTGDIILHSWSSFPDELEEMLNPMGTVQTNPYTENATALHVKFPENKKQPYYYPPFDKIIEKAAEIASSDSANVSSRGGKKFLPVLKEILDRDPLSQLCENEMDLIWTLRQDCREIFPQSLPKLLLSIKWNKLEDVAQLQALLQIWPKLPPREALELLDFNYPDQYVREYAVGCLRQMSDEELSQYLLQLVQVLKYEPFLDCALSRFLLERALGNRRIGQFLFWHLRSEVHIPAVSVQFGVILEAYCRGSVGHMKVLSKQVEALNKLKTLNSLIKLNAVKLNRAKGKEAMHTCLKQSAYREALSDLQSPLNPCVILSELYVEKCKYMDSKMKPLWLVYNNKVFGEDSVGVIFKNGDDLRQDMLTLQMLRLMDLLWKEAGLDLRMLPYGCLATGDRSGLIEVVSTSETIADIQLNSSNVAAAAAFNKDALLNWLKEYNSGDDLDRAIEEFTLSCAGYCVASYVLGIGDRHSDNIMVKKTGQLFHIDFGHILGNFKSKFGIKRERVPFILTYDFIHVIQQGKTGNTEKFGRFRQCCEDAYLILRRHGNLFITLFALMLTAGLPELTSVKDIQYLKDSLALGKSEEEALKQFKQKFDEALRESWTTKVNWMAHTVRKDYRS
PI3K-β (p110β/p85α), sequence (P27986 whole entry partner, species assumed): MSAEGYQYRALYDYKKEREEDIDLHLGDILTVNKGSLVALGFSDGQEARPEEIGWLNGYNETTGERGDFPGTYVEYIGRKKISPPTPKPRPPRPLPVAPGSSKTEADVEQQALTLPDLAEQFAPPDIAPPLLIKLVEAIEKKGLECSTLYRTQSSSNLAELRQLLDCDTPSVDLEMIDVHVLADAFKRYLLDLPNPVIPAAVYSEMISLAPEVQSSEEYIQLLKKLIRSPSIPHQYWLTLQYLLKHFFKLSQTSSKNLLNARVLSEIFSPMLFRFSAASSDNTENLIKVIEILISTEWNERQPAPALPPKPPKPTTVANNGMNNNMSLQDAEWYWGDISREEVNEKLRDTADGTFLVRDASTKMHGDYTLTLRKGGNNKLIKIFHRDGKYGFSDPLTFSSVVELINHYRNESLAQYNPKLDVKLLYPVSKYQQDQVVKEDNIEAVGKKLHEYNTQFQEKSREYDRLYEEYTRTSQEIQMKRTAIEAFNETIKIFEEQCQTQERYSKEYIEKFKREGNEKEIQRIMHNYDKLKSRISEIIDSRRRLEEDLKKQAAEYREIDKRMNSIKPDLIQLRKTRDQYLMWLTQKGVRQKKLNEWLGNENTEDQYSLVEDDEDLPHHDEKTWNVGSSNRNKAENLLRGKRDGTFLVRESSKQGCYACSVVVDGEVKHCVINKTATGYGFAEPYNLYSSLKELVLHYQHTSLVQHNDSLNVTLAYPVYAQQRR
PI3K-δ (p110δ/p85α), sequence (O00329 whole entry, species assumed): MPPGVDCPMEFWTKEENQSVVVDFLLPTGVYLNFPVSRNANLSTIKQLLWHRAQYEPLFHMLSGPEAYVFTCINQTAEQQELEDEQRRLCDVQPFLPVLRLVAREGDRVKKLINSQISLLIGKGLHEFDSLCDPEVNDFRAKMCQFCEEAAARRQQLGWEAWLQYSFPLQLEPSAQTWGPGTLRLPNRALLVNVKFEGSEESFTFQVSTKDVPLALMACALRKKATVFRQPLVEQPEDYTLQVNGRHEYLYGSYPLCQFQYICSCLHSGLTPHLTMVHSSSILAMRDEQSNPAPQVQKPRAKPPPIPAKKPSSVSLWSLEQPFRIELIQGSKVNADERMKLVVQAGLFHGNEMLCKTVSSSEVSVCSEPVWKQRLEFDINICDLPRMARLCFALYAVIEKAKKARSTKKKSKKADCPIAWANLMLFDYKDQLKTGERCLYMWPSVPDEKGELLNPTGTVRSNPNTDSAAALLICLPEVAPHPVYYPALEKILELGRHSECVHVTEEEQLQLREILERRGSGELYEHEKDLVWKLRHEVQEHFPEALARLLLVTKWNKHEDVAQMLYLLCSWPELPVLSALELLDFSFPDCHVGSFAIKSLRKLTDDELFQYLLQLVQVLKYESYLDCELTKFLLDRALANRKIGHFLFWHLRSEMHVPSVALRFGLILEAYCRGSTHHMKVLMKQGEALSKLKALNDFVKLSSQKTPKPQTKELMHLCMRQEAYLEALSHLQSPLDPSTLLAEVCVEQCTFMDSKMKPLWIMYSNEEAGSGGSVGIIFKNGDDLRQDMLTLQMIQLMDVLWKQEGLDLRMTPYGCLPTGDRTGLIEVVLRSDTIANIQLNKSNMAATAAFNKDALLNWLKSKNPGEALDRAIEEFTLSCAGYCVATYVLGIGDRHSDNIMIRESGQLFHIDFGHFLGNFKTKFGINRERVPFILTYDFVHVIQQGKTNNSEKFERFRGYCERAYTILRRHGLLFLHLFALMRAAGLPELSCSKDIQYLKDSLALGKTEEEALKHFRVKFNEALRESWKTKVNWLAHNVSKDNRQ
PI3K-δ (p110δ/p85α), sequence (P27986 whole entry partner, species assumed): as the sequence (P27986 whole entry partner, species assumed) above
PI3K-α (p110α/p85α), sequence (P42336 whole entry, species assumed): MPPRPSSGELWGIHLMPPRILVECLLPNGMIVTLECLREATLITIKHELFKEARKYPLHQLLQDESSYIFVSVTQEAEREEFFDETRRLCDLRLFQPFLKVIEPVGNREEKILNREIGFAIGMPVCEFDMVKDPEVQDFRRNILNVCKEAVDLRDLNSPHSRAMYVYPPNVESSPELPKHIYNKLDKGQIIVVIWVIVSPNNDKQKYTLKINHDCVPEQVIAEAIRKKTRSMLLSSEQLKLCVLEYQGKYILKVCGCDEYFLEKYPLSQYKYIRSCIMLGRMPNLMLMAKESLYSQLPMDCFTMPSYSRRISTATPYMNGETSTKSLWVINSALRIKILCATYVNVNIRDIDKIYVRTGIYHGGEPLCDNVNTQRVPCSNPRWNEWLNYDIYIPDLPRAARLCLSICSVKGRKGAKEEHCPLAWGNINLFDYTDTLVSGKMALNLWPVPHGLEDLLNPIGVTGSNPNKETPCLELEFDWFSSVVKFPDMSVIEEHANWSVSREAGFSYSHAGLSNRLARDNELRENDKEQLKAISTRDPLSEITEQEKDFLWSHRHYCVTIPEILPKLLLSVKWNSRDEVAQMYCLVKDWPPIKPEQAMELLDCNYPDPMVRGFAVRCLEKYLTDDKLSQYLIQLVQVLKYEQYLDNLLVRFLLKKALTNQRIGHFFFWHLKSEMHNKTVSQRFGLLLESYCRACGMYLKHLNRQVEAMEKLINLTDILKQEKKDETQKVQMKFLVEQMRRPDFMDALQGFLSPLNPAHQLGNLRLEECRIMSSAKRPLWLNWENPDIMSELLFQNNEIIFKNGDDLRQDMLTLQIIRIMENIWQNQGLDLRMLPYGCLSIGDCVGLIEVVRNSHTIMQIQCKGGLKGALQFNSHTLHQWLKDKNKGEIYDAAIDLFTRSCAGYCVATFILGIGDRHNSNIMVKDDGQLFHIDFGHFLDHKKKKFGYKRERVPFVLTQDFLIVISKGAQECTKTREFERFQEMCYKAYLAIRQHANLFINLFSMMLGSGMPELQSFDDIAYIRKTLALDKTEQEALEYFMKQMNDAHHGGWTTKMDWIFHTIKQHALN
PI3K-α (p110α/p85α), sequence (P27986 whole entry partner, species assumed): as the sequence (P27986 whole entry partner, species assumed) above
Protocol for PI3K-β (p110β/p85α): (§2) PI3K kinases including p110α/p85α and p110γ were purchased from Invitrogen, p110δ/p85α and p110β/p85α were from Millipore.
(§3) It is a universal, homogenous, high throughput screening (HTS) technology using a far-red, competitive fluorescence polarization immunoassay based on the defection of ADP to monitor the activity of enzymes that catalyze group transfer reactions. […] The reaction mixture was added into desired wells of a 96-well plate. The plate was sealed and incubated for 80 min at room temperature. • 2) Next, 25 uL ADP detection mix was added into each well. The plate was sealed again and incubated for 60 min at room temperature. Then fluorescence polarization was measured by Tecan Infinite F500 Reader.
as §1
Protocol for PI3K-δ (p110δ/p85α): as §2, §3, §1
Protocol for SU-DHL-6 cell line: Growth inhibition assays were carried out using 10% FBS supplemented media. Cells were seeded at a concentration of 15000 cells/well in a 96-well plate. Test compound dilution at different concentrations (final concentrations of the test compound: 1 uM, 0.3 uM, 0.1 uM, 0.037 uM, 0.012 uM, 0.0041 uM, 0.0014 uM and 0.0005 uM) were added after 24 hours. Growth was assessed using Cell Counting Kit-8 (CCK-8) (Dojindo, Cat # CK04) after the test compound were incubated for 72 h. Absorbance was read at the wave length 450 nm on Multiskan MK3 machine (Thermo).
as §1

For `C[C@H](Nc1ncnc(N)c1C#N)c1cc2ncc(Cl)n2nc1-c1ccccc1` [Compound 4, (S)-4-amino-6-((1-(3-chloro-6-phenylimidazo[1,2-b]pyridazin-7-yl)ethyl)amino)pyrimidine-5-carbonitrile], in assay [1] (Rattus norvegicus, B-cell, po, at 2 hr post-dose, read-out: EC50 (corresponding plasma concentration)), the EC50 came out at 1.49 ng/mL (≈ 3.8 nM). Also, the “anti-IgD induced B cell activation in rat whole blood, ex vivo” value in assay [1] (oral, dose range 0.01 to 3 mg/kg, p<0.01) was “inhibited anti-IgD induced B cell activation in rat whole blood, ex vivo, in a dose- and time-dependent manner”. For the same molecule, in assay [2] (PO QD days 10-16, p<0.01, all doses except lowest dose 0.03 mg/kg), the “mean paw volume at the end of the treatment period compared to vehicle-treated diseased animals” value is listed as “significantly decreased”. For the same molecule, the “effects on the parameters associated with established type II collagen-induced arthritis” value in assay [2] (daily oral treatment) is “dose-dependent beneficial effects”.

`C[C@H](Nc1ncnc(N)c1C#N)c1cc2ncc(F)n2nc1-c1ccccc1` [Compound 78, (S)-4-amino-6-((1-(3-fluoro-6-phenylimidazo[1,2-b]pyridazin-7-yl)ethyl)amino)pyrimidine-5-carbonitrile]: the negative-log IC50 (pIC50) against PI3K-δ (p110δ/p85α) was 9.00; in assay [3] (Homo sapiens), 8.15; in assay [4], 8.00. In addition, the “PI3K-β IH%” value at PI3K-β (p110β/p85α) amounted to 50.1%.

`Cc1cnc2cc([C@H](C)Nc3ncnc4[nH]cnc34)c(-c3ccccc3)nn12` [Compound 23]: the “PI3K-β IH%” value at PI3K-β (p110β/p85α) amounted to 28.7%. Besides, the “PI3K-α IH%” value on PI3K-α (p110α/p85α) came out at 3.2%. For the same molecule, the pIC50 in assay [3] is 7.92; with SU-DHL-6 cell line it was 7.11.
